Assay [1] concerns iPTH. Briefly: Phase 2 PK-PD Study: iPTH suppression in CKD patients with SHPT. Format: in vivo, human. As to conditions: 25 mg once daily. On the procedure: (§1) A randomized, double-blind, placebo-controlled phase 2 clinical study was conducted to assess the efficacy, pharmacokinetics (PK), pharmacodynamics (PD) and safety of 2-methyl-5-((2R,4S)-2-((((R)-1-(naphthalen-1-yl)ethyl)amino)methyl) chroman yl)benzoic acid, hydrochloride (Compound 3), as a monotherapy in patients with CKD with secondary hyperparathyroidism (SHPT). The patients enrolled in the study were either on dialysis or not on dialysis. Patients could continue taking doses (whether stable dosing or otherwise) of calcium supplements, phosphate binders, vitamin D, vitamin D analogues or a combination thereof for the treatment of SHPT in combination with Compound 3. Patients can take at least one calcium supplement, phosphate binder, vitamin D, vitamin D analogue or a combination thereof concurrently or concomitantly with Compound 3. Dosing for such calcium supplements, phosphate binders, vitamin D, vitamin D analogues or a combination thereof for the treatment of SHPT can be individualized based on patient's iPTH levels, and/or can correlate with doses presently used for the treatment of SHPT.
This was an open-label, non-randomized, single arm study enrolling 10 patients of which 6 patients were on dialysis and 4 were not on dialysis. All patients received 25 mg Compound 3, once daily for […], and thereafter underwent PK-PD assessments. All 6 patients (100%) on dialysis group completed the study while 2 patients out of 4 (50%) on not on dialysis group completed the study. One objective of this study were to determine PK parameters maximum concentration, time to maximum concentration, area under the curve (AUC) (AUC from time 0 up to the last quantifiable concentration; AUC from time 0 to infinity; AUC from time 0 to 24 hours), half-life, apparent clearance, and apparent volume of distribution from blood samples collected at scheduled time-points. Yet another objective of this study was to determine PD parameters mean absolute change and mean percentage change from baseline in corrected total serum calcium and phosphorus.
For efficacy assessments, the primary efficacy assessment included measurement of iPTH and the exploratory efficacy assessment included measurement of parathyroid gland size at scheduled time points. Blood samples for measurement of iPTH were collected during Day −30 to Day −1 (Screening Period); Day 1; Day 8+/−3 days; Day 15+/−3 days; Day 30+/−3 days; Day 60+/−3 days; and Day 90+/−3 days (EOT/Early Discontinuations). […] If the blood sample collected on Day 90 could not be analysed for any reason, the second blood sample had to be collected within 3 days of end of treatment (EOT). Chemiluminescence microparticles immunoassay (CMIA) (such as Abbott's ARCHITECT® Intact PTH assay) was used to quantify iPTH in serum and plasma. […]

In assay [2] the test system is iPTH. Briefly: Phase 2 Main Study: iPTH change from baseline in CKD patients with SHPT. The note with it: for iPTH levels reduced from baseline (FIG. 1) / mean percentage suppression in iPTH from baseline, peak, Day 90, 2 to 4 hours post-dose (exploratory analysis) / mean percentage suppression in iPTH from baseline at the end of 90 days / proportion of patients with ≥30% reduction in iPTH from baseline at end of 90 days (responder rate): patients on dialysis. The format is in vivo, human. On the procedure: as §1
This was a double-blind, randomized, placebo-controlled, multicenter study with an additional non-randomized open-label arm conducted in patients with secondary hyper-parathyroidism (SHPT) associated with CKD which was further stratified in 2 groups: on dialysis and not on dialysis. The iPTH levels of patients in the “on dialysis” group were in a range of 428.2 pg/ml to 1240.6 pg/ml (mean 857.76 pg/ml) while those in the “not on dialysis” group were in a range of 125.0 pg/ml to 654.7 pg/ml (mean 297.83 pg/ml).
Total 179 patients were enrolled in this study of which 108 patients were on dialysis and 71 were not on dialysis. Patients of on dialysis group were further randomized to 3 subgroups administering 10 mg Compound 3, 25 mg Compound 3, or placebo once daily in a double blind fashion enrolling 35 patients, 36 patients and 18 patients, respectively, and an additional non-randomized open label arm enrolling 19 patients receiving 20 mg Compound 3, twice daily. A total of 98 patients completed the study. 10 patients discontinued the study. None of the patients discontinued the study due to adverse drug reactions.
Patients on not on dialysis group were randomized to two treatment subgroups administering 10 mg Compound 3, or placebo once daily in a double blind fashion enrolling 37 and 18 patients, respectively, and an additional non-randomized open label arm enrolling 16 patients receiving 5 mg Compound 3, twice daily. 4 patients discontinued the study. None of the patients discontinued the study due to adverse drug reactions.
The efficacy, PK, PD and safety of Compound 3, as a monotherapy in patients with CKD with secondary hyperparathyroidism (SHPT), were assessed. One objective of the study was to evaluate the mean percentage change in iPTH from baseline at the end of 90 days. Yet another objective of the study was to determine the proportion of patients with >30% reduction in iPTH from baseline at the end of 90 days. Yet another objective of the study was to ensure safety of patients.
For efficacy assessments, the primary efficacy assessment included measurement of iPTH and the exploratory efficacy assessment included measurement of parathyroid gland size at scheduled time points. Blood samples for measurement of iPTH were collected during Day −30 to Day −1 (Screening Period); Day 1; Day 8+/−3 days; Day 15+/−3 days; Day 30+/−3 days; Day 60+/−3 days; and Day 90+/−3 days (EOT/Early Discontinuations). Two blood samples were collected during Screening Period and higher of these 2 values was considered as a baseline value. During treatment period of the Main Study, blood samples were collected on Day 30, Day 60, and Day 90. If the blood sample collected on Day 90 could not be analysed for any reason, the second blood sample had to be collected within 3 days of end of treatment (EOT). […]

The mark [3] stands for this setting: patients not on dialysis, 10 mg QD.

Values joined by “and” are separate entries in the source; they are usually repeats but may differ in a detail not shown here. Equal values may be shown once.

For the molecule `Cc1ccc([C@@H]2C[C@H](CN[C@H](C)c3cccc4ccccc34)Oc3ccccc32)cc1C(=O)O.Cl` [Compound 3, 2-methyl-5-((2R,4S)-2-((((R)-1-(naphthalen-1-yl)ethyl)amino)methyl)chroman-4-yl)benzoic acid hydrochloride], the “peak effect on iPTH suppression from baseline” value in assay [1] (Day 1, within 4 hours of dosing, patients on dialysis and not on dialysis) is over 80.0%; in assay [1] (Day 8, within 4 hours of dosing, patients not on dialysis), over 85.0%; in assay [1] (Day 8, within 4 hours of dosing, patients on dialysis), over 70.0%. For the same molecule, in assay [1] (Day 1 and Day 8), the “time of peak effect on iPTH suppression after dosing” value is at most 4 h. The “iPTH levels reduced from baseline (FIG. 2)” value in assay [2] (patients not on dialysis, 5 mg BID) is “more than 30%”; in assay [2] (setting [3]), “more than 30%”. Besides, the “mean percentage suppression in iPTH from baseline at the end of 90 days (2 to 4 hours post-dose), exploratory analysis” value in assay [2] (patients not on dialysis, 5 mg BID open label arm) is −55.03%; in assay [2] (setting [3]), −48.07%. Further, the “mean percentage suppression in iPTH versus Placebo at the end of Day 90” value in assay [2] (patients not on dialysis, 10 mg QD and 5 mg BID) is on record as “No significant difference”. Further, the “difference in proportion of patients who achieved ≥30% reduction in iPTH from baseline at the end of 90 days versus Placebo” value in assay [2] (patients not on dialysis, QD or BID dosing regimen, 10 mg per day) was “not significant”. The “iPTH levels reduced from baseline (FIG. 1)” value in assay [2] (10 mg QD) was 25.65%; in assay [2] (20 mg BID), “more than 30%”; in assay [2] (25 mg QD), “more than 30%”. Also, the “mean percentage suppression in iPTH from baseline, peak, Day 90, 2 to 4 hours post-dose (exploratory analysis)” value in assay [2] (10 mg QD) is −79.54%; in assay [2] (20 mg BID open label arm), −93.02%; in assay [2] (25 mg QD), −85.79%. In addition, the “mean percentage suppression in iPTH from baseline at the end of 90 days” value is on record as −25.65% in assay [2] (10 mg QD, per protocol); −82.42% in assay [2] (20 mg BID open label arm); −56.65% in assay [2] (25 mg QD, per protocol). Also, the “proportion of patients with ≥30% reduction in iPTH from baseline at end of 90 days (responder rate)” value in assay [2] (20 mg BID, hydrochloride) is 93% and ~90%; in assay [2] (25 mg QD) it was “around 80%”.
